Read-outs that look alike come from different tables or passages of the source.
Columns and labels:
[1] = target: CFTR-mediated chloride transport in human intestinal epithelial enteroid cells (Homo sapiens, UniProt P13569); assay: Membrane potential dye, Enteroid Assay A; format: cell-based
Method in brief: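 Membrane potential dye (20 μM methyl oxonol, with 30 μM CaCCinh-A01 and 30 μM Chicago Sky Blue) loaded 25 min at room temperature into ROCK-inhibitor-seeded human enteroid cells. Chloride-free stimulation buffer triggered transport, followed by 15 min fluorescence. % Activity relative to 3 μM/3 μM/300 nM triple-combination control.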

[2] = from Cc1cccc(C)c1-c1cc(Cl)nc(NS(=O)(=O)c2cccc(C(=O)N3CCN(C(C)C(C)(C)C)C[C@@H](O)C3)c2)n1, snar bond, 13-membered ring, NaH, DMF, 31.4 mM, 0.0 °C, 7.0 h
[3] = from Cc1cccc(C)c1-c1cc(OCC2c3ccc(C(C)(C)C)cc3CNC2C)nc(NS(=O)(=O)c2cccc(C(=O)O)c2)n1, amide bond, 14-membered ring, HATU/TEA, DMF, 44.8 mM, 50.0 °C, 0.5 h, 2 steps

Sequence of CFTR-mediated chloride transport in human intestinal epithelial enteroid cells (P13569 with tags, fused parts or gaps DEL508-508): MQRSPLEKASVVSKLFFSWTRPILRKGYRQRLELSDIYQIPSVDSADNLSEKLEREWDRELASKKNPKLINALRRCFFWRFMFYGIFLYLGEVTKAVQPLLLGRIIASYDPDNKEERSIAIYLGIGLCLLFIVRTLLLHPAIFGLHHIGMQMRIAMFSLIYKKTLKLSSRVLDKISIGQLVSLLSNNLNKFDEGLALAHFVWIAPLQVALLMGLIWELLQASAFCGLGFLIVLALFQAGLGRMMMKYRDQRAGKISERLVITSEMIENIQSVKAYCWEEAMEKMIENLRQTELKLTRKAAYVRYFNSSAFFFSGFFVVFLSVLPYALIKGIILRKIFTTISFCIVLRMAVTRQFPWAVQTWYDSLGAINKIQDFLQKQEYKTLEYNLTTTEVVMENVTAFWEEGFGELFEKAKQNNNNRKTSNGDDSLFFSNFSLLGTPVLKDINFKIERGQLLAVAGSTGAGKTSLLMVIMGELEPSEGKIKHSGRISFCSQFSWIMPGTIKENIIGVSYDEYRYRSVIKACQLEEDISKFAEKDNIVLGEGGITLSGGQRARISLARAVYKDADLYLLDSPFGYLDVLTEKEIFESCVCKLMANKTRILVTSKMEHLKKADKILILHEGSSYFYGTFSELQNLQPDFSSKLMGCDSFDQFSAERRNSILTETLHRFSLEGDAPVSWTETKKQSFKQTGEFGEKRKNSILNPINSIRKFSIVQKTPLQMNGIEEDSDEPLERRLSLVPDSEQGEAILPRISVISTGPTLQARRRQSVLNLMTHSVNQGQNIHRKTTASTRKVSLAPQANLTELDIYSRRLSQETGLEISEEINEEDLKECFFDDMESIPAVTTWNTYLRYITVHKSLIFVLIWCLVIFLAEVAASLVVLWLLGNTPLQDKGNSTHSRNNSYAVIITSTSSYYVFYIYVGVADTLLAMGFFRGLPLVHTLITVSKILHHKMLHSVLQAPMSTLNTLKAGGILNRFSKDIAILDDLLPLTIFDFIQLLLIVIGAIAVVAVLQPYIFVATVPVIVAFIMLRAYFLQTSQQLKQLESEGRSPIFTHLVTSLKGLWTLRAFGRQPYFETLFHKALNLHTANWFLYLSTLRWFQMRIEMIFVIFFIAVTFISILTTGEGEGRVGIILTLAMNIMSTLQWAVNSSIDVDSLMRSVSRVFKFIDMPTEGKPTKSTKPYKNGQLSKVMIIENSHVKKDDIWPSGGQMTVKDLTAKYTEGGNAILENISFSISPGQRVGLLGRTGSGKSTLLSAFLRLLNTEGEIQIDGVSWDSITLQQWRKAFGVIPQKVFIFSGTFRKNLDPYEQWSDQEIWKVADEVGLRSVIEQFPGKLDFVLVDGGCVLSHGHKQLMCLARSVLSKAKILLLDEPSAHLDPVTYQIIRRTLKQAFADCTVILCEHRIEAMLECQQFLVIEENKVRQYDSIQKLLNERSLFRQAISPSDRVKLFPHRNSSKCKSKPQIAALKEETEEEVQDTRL

Question: With Cc1cccc(C)c1-c1cc2nc(n1)NS(=O)(=O)c1cccc(c1)C(=O)N1C(c3cncc(N(C)C4CCC4)n3)CC[C@H](O2)[C@H]1CC(C)C (some centres unmarked) as the compound, how does the ring closure, yield after HPLC (from Cc1cccc(C)c1-c1cc(Cl)nc(NS(=O)(=O)c2cccc(C(=O)N3C(c4cncc(N(C)C5CCC5)n4)CC[C@H](O)[C@H]3CC(C)C)c2)n1, snar bond, 13-membered ring, NaH, DMF, 21.5 mM, 24.0 h) read?
Answer: Its ring closure, yield after HPLC is 4%.

Question: And the ring closure, yield after HPLC (from Cc1cccc(C)c1-c1cc(O[C@H]2CCC(c3cncc(N(C)C4CCC4)n3)N[C@@H]2CC(C)C)nc(NS(=O)(=O)c2cccc(C(=O)O)c2)n1, amide bond, 13-membered ring, CDMT/NMM, DMF, 16.6 mM, 48.0 h, 2 steps)?
Answer: Its ring closure, yield after HPLC is 31.6%.

Question: What does the source list for Cc1cccc(C)c1-c1cc2nc(n1)NS(=O)(=O)c1cccc(c1)C(=O)N1CC(CCC1c1ccccc1)O2 (centres unmarked)?
Answer: ring closure, yield after HPLC (from Cc1cccc(C)c1-c1cc(OC2CCC(c3ccccc3)NC2)nc(NS(=O)(=O)c2cccc(C(=O)O)c2)n1, amide bond, 13-membered ring, HATU/DIEA, DMF, 156.0 mM, 25.0 °C, 0.083 h, 3 steps): 37%; ring closure, yield after HPLC (from Cc1cccc(C)c1-c1cc(OC2CCC(c3ccccc3)NC2)nc(NS(=O)(=O)c2cccc(C(=O)Oc3c(F)c(F)c(F)c(F)c3F)c2)n1, amide bond, 13-membered ring, thermal (OPfp ester), NMP, 36.0 mM, 130.0 °C, 1.0 h, 4 steps): 7%

Question: With Cc1cccc(C)c1-c1cc2nc(n1)NS(=O)(=O)c1cccc(c1)C(=O)N1CC(O2)C2CCCN(C)C2C1 (centres unmarked) as the compound, how does the ring closure, yield after HPLC (from Cc1cccc(C)c1-c1cc(OC2CNCC3C2CCCN3C)nc(NS(=O)(=O)c2cccc(C(=O)O)c2)n1, amide bond, 13-membered ring, HATU/DIEA, DMF, 27.2 mM, 25.0 °C, 0.67 h) read?
Answer: Its ring closure, yield after HPLC is 10%.

Question: Which ring closure, yield after HPLC (from Cc1cccc(C)c1-c1cc(OC2CNC(CC(C)C)c3ccccc32)nc(NS(=O)(=O)c2cccc(C(=O)O)c2)n1, amide bond, 13-membered ring, HATU/DIEA, DMF, 256.0 mM, 1.0 h) does the source give for Cc1cccc(C)c1-c1cc2nc(n1)NS(=O)(=O)c1cccc(c1)C(=O)N1CC(O2)c2ccccc2C1CC(C)C (centres unmarked) here?
Answer: The ring closure, yield after HPLC was 8%.

Question: With Cc1cccc(C)c1-c1cc2nc(n1)NS(=O)(=O)c1cccc(c1)C(=O)N1CCCC(O2)C1CC(C)C (centres unmarked) as the compound, how does the ring closure, yield after HPLC (from Cc1cccc(C)c1-c1cc(Cl)nc(NS(=O)(=O)c2cccc(C(=O)N3CCCC(O)C3CC(C)C)c2)n1, snar bond, 13-membered ring, NaH, DMF, 17.2 mM, 25.0 °C, 40.0 h) read?
Answer: The ring closure, yield after HPLC was 17%.

Question: What about the ring closure, yield after HPLC (from Cc1cccc(C)c1-c1cc(Cl)nc(NS(=O)(=O)c2cccc(C(=O)N3CCCC(O)C3CC(C)C)c2)n1, snar bond, 13-membered ring, NaH, DMF, 18.3 mM, 25.0 °C, 24.0 h) of the same compound?
Answer: The ring closure, yield after HPLC was 24%.

Question: Which ring closure, yield after HPLC (from Cc1cccc(C)c1-c1cc(OC(Cc2ccccc2)[C@H]2COCCN2)nc(NS(=O)(=O)c2cccc(C(=O)O)c2)n1, amide bond, 13-membered ring, HATU/DIEA, DMF, 61.0 mM, 25.0 °C, 1.5 h) does the source give for Cc1cccc(C)c1-c1cc2nc(n1)NS(=O)(=O)c1cccc(c1)C(=O)N1CCOC[C@@H]1C(Cc1ccccc1)O2 (some centres unmarked) here?
Answer: The ring closure, yield after HPLC was 74%.

Question: For Cc1cccc(C)c1-c1cc2nc(n1)NS(=O)(=O)c1cccc(c1)C(=O)N1Cc3cc(C(C)(C)C)ccc3[C@H](O2)[C@H]1CC(C)(C)C, which ring closure, yield after HPLC (from Cc1cccc(C)c1-c1cc(O[C@H]2c3ccc(C(C)(C)C)cc3CN[C@@H]2CC(C)(C)C)nc(NS(=O)(=O)c2cccc(C(=O)O)c2)n1, amide bond, 13-membered ring, HATU/NaOtBu, DMF/THF, 0.25 h, 2 steps) is on record?
Answer: Its ring closure, yield after HPLC is 3%.

Question: Which ring closure, yield after HPLC (from Cc1cccc(C)c1-c1cc(O[C@@H]2c3ccc(C(F)(F)F)cc3CN[C@@H]2CC(C)C)nc(NS(=O)(=O)c2cccc(C(=O)O)c2)n1, amide bond, 13-membered ring, HATU/NaOtBu, DMF/THF, 0.25 h, 3 steps) does the source give for Cc1cccc(C)c1-c1cc2nc(n1)NS(=O)(=O)c1cccc(c1)C(=O)N1Cc3cc(C(F)(F)F)ccc3[C@@H](O2)[C@H]1CC(C)C here?
Answer: The ring closure, yield after HPLC was 3%.

Question: With Cc1cccc(C)c1-c1cc2nc(n1)NS(=O)(=O)c1cccc(c1)C(=O)N1Cc3cc(C(F)(F)F)ccc3[C@H](O2)[C@H]1CC(C)C as the compound, how does the ring closure, yield after HPLC (from Cc1cccc(C)c1-c1cc(O[C@H]2c3ccc(C(F)(F)F)cc3CN[C@@H]2CC(C)C)nc(NS(=O)(=O)c2cccc(C(=O)O)c2)n1, amide bond, 13-membered ring, HATU/NaOtBu, DMF/THF, 0.25 h, 3 steps) read?
Answer: The ring closure, yield after HPLC was 5%.

Question: With Cc1cccc(C)c1-c1cc2nc(n1)NS(=O)(=O)c1cccc(c1)C(=O)N1Cc3ccncc3C(C1)O2 (centres unmarked) as the compound, how does the ring closure, yield after HPLC (from Cc1cccc(C)c1-c1cc(OC2CNCc3ccncc32)nc(NS(=O)(=O)c2cccc(C(=O)O)c2)n1, amide bond, 13-membered ring, HATU/DIEA, DMF, 23.5 mM, 0.5 h, 2 steps) read?
Answer: The ring closure, yield after HPLC was 3%.

Question: For Cc1ccccc1-c1cc2nc(n1)NS(=O)(=O)c1cccc(c1)C(=O)N1Cc3ccccc3[C@H](O2)[C@H]1CC(C)C, which ring closure, yield after HPLC (from Cc1ccccc1-c1cc(O[C@H]2c3ccccc3CN[C@@H]2CC(C)C)nc(NS(=O)(=O)c2cccc(C(=O)O)c2)n1, amide bond, 13-membered ring, HATU/DIEA, DMF, 190.0 mM, 0.5 h, 3 steps) is on record?
Answer: The ring closure, yield after HPLC was 18%.

Question: Which ring closure, yield after HPLC (amide bond, 13-membered ring, HATU/DIEA, DMF, 115.0 mM) does the source give for “12-(2,6-dimethylphenyl)-23-(2-methylpropyl)-15-oxa-8λ^6-thia-1,9,11,25-tetraazapentacyclo[14.7.1.13,7.110,14.017,22]hexacosa-3(26),4,6,10(25),11,13,17,19,21-nonaene-2,8,8-trione, major diastereomer” here?
Answer: Its ring closure, yield after HPLC is 53%.

Question: What does the source list for Cc1cccc(C)c1-c1cc2nc(n1)NS(=O)(=O)c1cccc(c1)C(=O)N1Cc3cccnc3C(C1)O2 (single isomer, unassigned) [Compound 195, 12-(2,6-dimethylphenyl)-15-oxa-8λ^6-thia-1,9,11,18,25-pentaazapentacyclo[14.7.1.13,7.110,14.017,22]hexacosa-3,5,7(26),10(25),11,13,17,19,21-nonaene-2,8,8-trione]?
Answer: EC50 ([1]; enteroid cells incubated with test compound 18-24 hours, acute 10 μM forskolin and 300 nM N-[2,4-bis(1,1-dimethylethyl)-5-hydroxyphenyl]-1,4-dihydro-4-oxoquinoline-3-carboxamide, read-out: Ent. A EC50): 3 to 30 µM; Ent. A Max Activity (%) ([1]; percentage of chloride transport of triple combination control (3 μM N-[(6-amino-2-pyridyl)sulfonyl]-6-(3-fluoro-5-isobutoxy-phenyl)-2-[(4S)-2,2,4-trimethylpyrrolidin-1-yl]pyridine-3-carboxamide based)): ++ (++ is 30-60%); ring closure, yield after HPLC (from Cc1cccc(C)c1-c1cc(OC2CNCc3cccnc32)nc(NS(=O)(=O)c2cccc(C(=O)O)c2)n1, amide bond, 13-membered ring, HATU/DIEA, DMF, 8.0 mM, 1.0 h): 76%

Question: Which ring closure, yield after HPLC (from 3-[[4-(2,6-dimethylphenyl)-6-[(5-phenyl-3-piperidyl)oxy]pyrimidin-2-yl]sulfamoyl]benzoic acid (hydrochloride salt), diastereomer 1, amide bond, 13-membered ring, HATU/DIEA, DMF, 37.8 mM, 25.0 °C, 3 steps) does the source give for Cc1cccc(C)c1-c1cc2nc(n1)NS(=O)(=O)c1cccc(c1)C(=O)N1CC(CC(c3ccccc3)C1)O2 (single isomer, unassigned; diastereomer 1) here?
Answer: Its ring closure, yield after HPLC is 1%.

Question: For Cc1cccc(C)c1-c1cc2nc(n1)NS(=O)(=O)c1cccc(c1)C(=O)N1CC(O2)C2CCCN(C)C2C1 (single isomer, unassigned; diastereomer 1), which ring closure, yield after HPLC (from Cc1cccc(C)c1-c1cc(OC2CNCC3C2CCCN3C)nc(NS(=O)(=O)c2cccc(C(=O)O)c2)n1, amide bond, 13-membered ring, HATU/DIEA, DMF, 20.5 mM, 25.0 °C, 1.0 h) is on record?
Answer: Its ring closure, yield after HPLC is 54%.

Question: With Cc1cccc(C)c1-c1cc2nc(n1)NS(=O)(=O)c1cccc(c1)C(=O)N1CCN(C(C)C(C)(C)C)C[C@H](C1)O2 (single isomer, unassigned; diastereomer 1) as the compound, how does the ring closure, yield after HPLC [2] read?
Answer: Its ring closure, yield after HPLC is 36%.

Question: For Cc1cccc(C)c1-c1cc2nc(n1)NS(=O)(=O)c1cccc(c1)C(=O)N1CC(CC(c3ccccc3)C1)O2 (single isomer, unassigned; diastereomer 2), which ring closure, yield after HPLC (from 3-[[4-(2,6-dimethylphenyl)-6-[(5-phenyl-3-piperidyl)oxy]pyrimidin-2-yl]sulfamoyl]benzoic acid (hydrochloride salt), diastereomer 2, amide bond, 13-membered ring, HATU/DIEA, DMF, 61.9 mM, 25.0 °C, 3 steps) is on record?
Answer: The ring closure, yield after HPLC was 31%.

Question: Which ring closure, yield after HPLC (from Cc1cccc(C)c1-c1cc(Cl)nc(NS(=O)(=O)c2cccc(C(=O)N3CCN(C(=O)OCc4ccccc4)CC(O)[C@H]3C)c2)n1, snar bond, 13-membered ring, NaH, DMF, 30.1 mM, 0.0 °C, 1.5 h) does the source give for Cc1cccc(C)c1-c1cc2nc(n1)NS(=O)(=O)c1cccc(c1)C(=O)N1CCN(C(=O)OCc3ccccc3)CC(O2)[C@H]1C (single isomer, unassigned; diastereomer 2) here?
Answer: Its ring closure, yield after HPLC is 7%.

Question: For Cc1cccc(C)c1-c1cc2nc(n1)NS(=O)(=O)c1cccc(c1)C(=O)N1CCN(C(C)C(C)(C)C)C[C@H](C1)O2 (single isomer, unassigned; diastereomer 2), which ring closure, yield after HPLC [2] is on record?
Answer: The ring closure, yield after HPLC was 33%.

Question: For Cc1cccc(C)c1-c1cc2nc(n1)NS(=O)(=O)c1cccc(c1)C(=O)N1Cc3cc(C(C)(C)C)ccc3C(CO2)C1C (single isomer, unassigned; enantiomer 1), which ring closure, yield after HPLC [3] is on record?
Answer: Its ring closure, yield after HPLC is 2%.

Question: Which ring closure, yield after HPLC [3] does the source give for Cc1cccc(C)c1-c1cc2nc(n1)NS(=O)(=O)c1cccc(c1)C(=O)N1Cc3cc(C(C)(C)C)ccc3C(CO2)C1C (single isomer, unassigned; enantiomer 2) here?
Answer: The ring closure, yield after HPLC was 1%.

Question: For Cc1cccc(C)c1-c1cc2nc(n1)NS(=O)(=O)c1cccc(n1)C(=O)N1CCN(CCC(C)(C)C)CC(C1)O2 (centres unmarked) [Compound 70, 18-(3,3-Dimethylbutyl)-12-(2,6-dimethylphenyl)-15-oxa-8λ^6-thia-1,9,11,18,22,23-hexaazatetracyclo[14.4.1.13,7.110,14]tricosa-3,5,7(23),10,12,14(22)-hexaene-2,8,8-trione], which “Ent. A Max Activity (%)” value ([1]; Enteroid Assay A) is on record?
Answer: The value was “+ (+ is <30%)”.

Question: What about the ring closure, yield after HPLC (from Cc1cccc(C)c1-c1cc(OC2CNCCN(CCC(C)(C)C)C2)nc(NS(=O)(=O)c2cccc(C(=O)O)n2)n1, amide bond, 13-membered ring, HATU/DIEA, DMF, 78.0 mM, 25.0 °C, 0.5 h, 2 steps) of the same compound?
Answer: The ring closure, yield after HPLC was 1%.

Question: With Cc1cccc(C)c1-c1cc2nc(n1)NS(=O)(=O)c1cccc(c1)C(=O)N1CC[C@H](C1)O2 [Compound 214, (3R)-17-(2,6-Dimethylphenyl)-2-oxa-13λ^6-thia-6,14,16,19-tetraazatetracyclo[13.3.1.13,6.18,12]henicosa-1(19),8(20),9,11,15,17-hexaene-7,13,13-trione] as the compound, how does the ring closure, yield after HPLC (from Cc1cccc(C)c1-c1cc(O[C@@H]2CCNC2)nc(NS(=O)(=O)c2cccc(C(=O)O)c2)n1, amide bond, 13-membered ring, HATU/TEA, DMF, 56.8 mM, 25.0 °C, 1.0 h) read?
Answer: Its ring closure, yield after HPLC is 17%.

— US20240018161A1, “MODULATORS OF CYSTIC FIBROSIS TRANSMEMBRANE CONDUCTANCE REGULATOR” (VERTEX PHARMACEUTICALS INCORPORATED, priority 2020, published 2024)
